Paper PMC4280362 (Biochimie, 2014)

T1: Isovaleryl-CoA dehydrogenase (IVD) (Homo sapiens, UniProt P26440)
T1 sequence (P26440 33-426): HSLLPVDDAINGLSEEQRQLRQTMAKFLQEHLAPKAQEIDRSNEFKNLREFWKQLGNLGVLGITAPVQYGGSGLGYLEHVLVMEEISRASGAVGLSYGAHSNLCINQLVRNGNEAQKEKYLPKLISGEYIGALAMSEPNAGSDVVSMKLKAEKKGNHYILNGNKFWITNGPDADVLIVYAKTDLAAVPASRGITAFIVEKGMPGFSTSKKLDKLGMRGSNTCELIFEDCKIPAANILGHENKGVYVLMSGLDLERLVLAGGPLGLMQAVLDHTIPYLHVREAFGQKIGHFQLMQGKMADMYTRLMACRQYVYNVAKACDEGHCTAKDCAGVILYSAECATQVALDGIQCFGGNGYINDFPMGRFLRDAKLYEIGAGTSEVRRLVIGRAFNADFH

T2: recombinant human isovaleryl-CoA dehydrogenase, CoA-persulfide-free (human, UniProt P26440 33-426)
T2 sequence: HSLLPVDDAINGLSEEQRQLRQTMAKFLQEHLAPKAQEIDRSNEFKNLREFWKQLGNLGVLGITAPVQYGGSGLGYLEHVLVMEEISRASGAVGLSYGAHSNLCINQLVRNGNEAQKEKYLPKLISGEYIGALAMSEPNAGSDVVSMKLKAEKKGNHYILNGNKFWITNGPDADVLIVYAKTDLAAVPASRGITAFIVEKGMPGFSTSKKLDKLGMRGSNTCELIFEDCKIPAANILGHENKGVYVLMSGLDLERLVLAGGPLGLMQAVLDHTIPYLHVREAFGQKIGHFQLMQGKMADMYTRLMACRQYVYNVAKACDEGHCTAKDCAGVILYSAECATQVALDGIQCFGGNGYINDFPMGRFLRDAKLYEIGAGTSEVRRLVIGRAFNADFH


What was measured:
[1] = biological target: T1, Isovaleryl-CoA dehydrogenase (IVD); assay: anaerobic UV/visible spectral titration; assay type: binding
[2] = biological target: T2, recombinant human isovaleryl-CoA …; assay: competitive inhibition of enzyme activity

Row | Kd [1] | Ki [2] | Molecule
1 | 540 nM |  | CC(C)CC(=O)SCCNC(=O)CCNC(=O)[C@H](O)C(C)(C)COP(=O)(O)OP(=O)(O)OC[C@H]1O[C@@H](n2cnc3c(N)ncnc32)[C@H](O)[C@@H]1OP(=O)(O)O [isovaleryl-CoA]
2 |  | 1.5 mM | RYATLPNIMKAK [ETF docking peptide, ETF βArg191-βLys202]
